# Calls of active or inactive are those of the source.
# Columns and labels:
# [1] = molecular target: Potassium voltage-gated channel subfamily KQT member 2 (Rattus norvegicus, UniProt O88943); experiment: blockers of KCNQ2 channel current – cell-based, automated electrophysiology, set II, rat KCNQ2, dose response (AID 588637); format: functional
# Leucine aminopeptidase = molecular target: T1, Leucine aminopeptidase (Plasmodium falciparum 3D7, UniProt Q8IL11); experiment: P. falciparum M17LAP inhibitors, primary screen, biochemical, fluorogenic H-Leu-NHMec substrate, 1536-well (AID 1619); format: functional
# T1 sequence (Q8IL11 whole entry): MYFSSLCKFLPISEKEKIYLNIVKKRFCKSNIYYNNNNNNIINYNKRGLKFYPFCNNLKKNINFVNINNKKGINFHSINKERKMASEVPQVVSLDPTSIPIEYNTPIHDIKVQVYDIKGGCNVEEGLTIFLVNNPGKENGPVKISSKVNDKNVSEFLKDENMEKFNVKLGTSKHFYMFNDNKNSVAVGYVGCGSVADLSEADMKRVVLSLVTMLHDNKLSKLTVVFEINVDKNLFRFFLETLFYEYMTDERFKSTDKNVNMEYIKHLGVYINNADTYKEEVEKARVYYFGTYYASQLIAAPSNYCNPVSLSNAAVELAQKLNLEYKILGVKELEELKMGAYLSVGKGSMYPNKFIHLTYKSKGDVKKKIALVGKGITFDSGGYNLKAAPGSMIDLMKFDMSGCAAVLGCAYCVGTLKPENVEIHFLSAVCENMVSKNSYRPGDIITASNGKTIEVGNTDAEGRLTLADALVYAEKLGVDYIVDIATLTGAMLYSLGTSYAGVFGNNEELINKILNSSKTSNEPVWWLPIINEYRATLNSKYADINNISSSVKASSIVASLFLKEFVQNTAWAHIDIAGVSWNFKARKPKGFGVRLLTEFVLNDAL
# [2] = inhibition of ARNT PAS-B/TACC3 complex formation – biochemical, AlphaScreen, cherry-picked samples, confirmation (AID 651703); format: functional, Homo sapiens;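 also: His-tagged ARNT PAS-B domain paired with GST-TACC3 E629A dimer coactivator fragment; potency of inhibitors that break up the complex and lower AlphaScreen signal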
# [3] = system: Streptococcus sp. 'group A'; experiment: Streptococcus pyogenes SK(-)GAS viability under kanamycin – luminescence, BacTiterGlo, confirmation, counter-screen for streptokinase expression inhibitor project, dose response (AID 1900); format: functional, organism-based
# Streptokinase A = molecular target: T2, Streptokinase A (Streptococcus pyogenes serotype M1, UniProt P10520); experiment: viability-normalized secreted streptokinase activity reduction – plasminogen activation absorbance, OD405, dose response (AID 1914); format: functional, Streptococcus pyogenes M1 GAS;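 also: secreted streptokinase activity via plasminogen activation per viability signal from cell pellet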
# T2 sequence (P10520 whole entry): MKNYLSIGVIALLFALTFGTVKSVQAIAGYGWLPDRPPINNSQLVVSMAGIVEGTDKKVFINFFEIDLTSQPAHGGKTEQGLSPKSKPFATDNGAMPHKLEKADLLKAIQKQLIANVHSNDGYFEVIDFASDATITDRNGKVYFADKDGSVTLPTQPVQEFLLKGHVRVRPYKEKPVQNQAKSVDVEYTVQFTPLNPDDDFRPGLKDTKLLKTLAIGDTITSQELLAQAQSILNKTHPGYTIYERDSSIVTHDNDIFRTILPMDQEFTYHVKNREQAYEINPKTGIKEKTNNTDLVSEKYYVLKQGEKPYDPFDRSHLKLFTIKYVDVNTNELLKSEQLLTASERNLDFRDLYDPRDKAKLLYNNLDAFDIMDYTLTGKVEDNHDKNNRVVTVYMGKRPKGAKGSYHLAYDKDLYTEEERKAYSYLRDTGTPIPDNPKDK
# Streptococcus = experiment: GAS UMAA2166 growth inhibition – luminescence, BacTiterGlo, counter-screen for streptokinase expression inhibitor project, dose response (AID 1915); format: functional, organism-based;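 also: potency for reduction of bacterial viability or growth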
# Escherichia coli [4] = experiment: microbe, parasite or virus in culture
# [5] = A cytotoxicity screen of small molecule inhibitors of the PhoP region in Salmonella typhi identified in the primary screen. [Related pubchem assays: 1850, 1864, 1985 ]; format: functional
# [6] = molecular target: T3, High affinity choline transporter 1 (Homo sapiens, UniProt Q9GZV3); experiment: human choline transporter blockers, potency – cell-based, 5-point CRC, membrane potential dye, dose response (AID 504840); format: functional
# T3 sequence (Q9GZV3 whole entry): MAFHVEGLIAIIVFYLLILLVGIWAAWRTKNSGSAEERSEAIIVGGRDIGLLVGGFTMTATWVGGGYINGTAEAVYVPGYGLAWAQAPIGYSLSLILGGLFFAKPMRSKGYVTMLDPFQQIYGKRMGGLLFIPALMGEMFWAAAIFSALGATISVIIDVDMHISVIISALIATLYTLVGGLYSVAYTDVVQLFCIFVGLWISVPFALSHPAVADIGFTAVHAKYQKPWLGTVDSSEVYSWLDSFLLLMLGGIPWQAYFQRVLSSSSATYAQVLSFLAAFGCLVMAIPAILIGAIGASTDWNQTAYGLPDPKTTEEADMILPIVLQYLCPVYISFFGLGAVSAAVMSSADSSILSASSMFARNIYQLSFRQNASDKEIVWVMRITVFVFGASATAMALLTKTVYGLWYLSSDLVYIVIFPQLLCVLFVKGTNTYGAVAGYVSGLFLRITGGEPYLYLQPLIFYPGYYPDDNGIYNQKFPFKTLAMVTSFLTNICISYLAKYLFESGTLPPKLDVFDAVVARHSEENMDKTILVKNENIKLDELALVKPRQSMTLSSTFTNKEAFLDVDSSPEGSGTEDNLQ
# [7] = molecular target: T3, High affinity choline transporter 1; experiment: human choline transporter blockers, potency – cell-based, 10-point CRC, membrane potential dye, dose response (AID 588401); format: functional;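 also: membrane potential dye fluorescence of choline-evoked depolarization via CHT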
# [8] = molecular target: T4, ATP-dependent translocase ABCB1 (Homo sapiens, UniProt P08183); experiment: inhibition of BCRP-mediated JC-1 efflux – Ig-MXP3 cells, flow cytometry, set 2, dose response (AID 504566); format: functional; settings: read-out: EC50_MICROM_;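 also: flow cytometry median green fluorescence of retained JC-1 dye; potency of efflux pump inhibition measured as rising substrate retention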
# T4 sequence (P08183 whole entry): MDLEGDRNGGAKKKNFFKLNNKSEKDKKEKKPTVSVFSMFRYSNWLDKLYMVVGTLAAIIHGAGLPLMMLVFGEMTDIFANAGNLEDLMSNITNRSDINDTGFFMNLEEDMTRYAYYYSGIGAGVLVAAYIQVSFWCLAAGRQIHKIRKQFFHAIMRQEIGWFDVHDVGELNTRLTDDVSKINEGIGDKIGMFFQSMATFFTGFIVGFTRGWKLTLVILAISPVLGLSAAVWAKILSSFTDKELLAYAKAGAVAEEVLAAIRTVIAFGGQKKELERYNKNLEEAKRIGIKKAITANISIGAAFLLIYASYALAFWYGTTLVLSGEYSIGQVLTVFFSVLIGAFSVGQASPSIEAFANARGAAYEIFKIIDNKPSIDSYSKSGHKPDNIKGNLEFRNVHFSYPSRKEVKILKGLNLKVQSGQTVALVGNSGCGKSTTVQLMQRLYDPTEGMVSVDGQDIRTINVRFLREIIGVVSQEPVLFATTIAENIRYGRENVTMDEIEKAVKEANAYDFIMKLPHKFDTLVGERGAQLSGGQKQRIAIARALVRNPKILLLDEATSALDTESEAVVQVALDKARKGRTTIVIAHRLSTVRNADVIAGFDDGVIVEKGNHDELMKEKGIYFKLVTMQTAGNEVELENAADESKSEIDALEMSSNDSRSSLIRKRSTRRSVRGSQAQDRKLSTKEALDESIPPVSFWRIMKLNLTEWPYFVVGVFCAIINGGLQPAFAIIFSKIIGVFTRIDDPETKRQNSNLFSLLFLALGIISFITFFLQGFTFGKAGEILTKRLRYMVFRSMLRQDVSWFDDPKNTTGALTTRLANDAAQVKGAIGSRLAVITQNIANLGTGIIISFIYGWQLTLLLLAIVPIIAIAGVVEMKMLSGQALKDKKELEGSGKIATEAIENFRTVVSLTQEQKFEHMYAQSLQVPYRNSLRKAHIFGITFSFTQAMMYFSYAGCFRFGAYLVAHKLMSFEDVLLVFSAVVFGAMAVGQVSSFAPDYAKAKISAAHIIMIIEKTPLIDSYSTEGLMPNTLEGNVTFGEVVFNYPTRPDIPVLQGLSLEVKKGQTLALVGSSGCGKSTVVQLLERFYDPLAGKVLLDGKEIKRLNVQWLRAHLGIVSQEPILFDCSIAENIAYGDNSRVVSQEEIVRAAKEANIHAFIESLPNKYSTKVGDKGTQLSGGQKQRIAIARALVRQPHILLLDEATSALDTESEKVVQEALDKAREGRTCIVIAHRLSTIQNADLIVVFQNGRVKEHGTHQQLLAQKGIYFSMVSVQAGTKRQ
# [9] = molecular target: T4, ATP-dependent translocase ABCB1; experiment: P-gp JC-1 efflux blockade concentration-response – Jurkat-DNR cells, flow cytometry, set 2, dose response (AID 504569); format: functional; settings: read-out: EC50_MICROM_;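 also: potency of pump inhibitors that raise cellular JC-1 green fluorescence up to the nicardipine level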
# [10] = molecular target: Photoreceptor-specific nuclear receptor (Homo sapiens, UniProt Q9Y5X4); format: functional, cell-based;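 also: CHO-S cells with Gal4-NCOR and VP16-NR2E3 two-hybrid luciferase reporter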
# Photoreceptor-specific nuclear receptor, sequence (Q9Y5X4 whole entry, the tested form may be a part): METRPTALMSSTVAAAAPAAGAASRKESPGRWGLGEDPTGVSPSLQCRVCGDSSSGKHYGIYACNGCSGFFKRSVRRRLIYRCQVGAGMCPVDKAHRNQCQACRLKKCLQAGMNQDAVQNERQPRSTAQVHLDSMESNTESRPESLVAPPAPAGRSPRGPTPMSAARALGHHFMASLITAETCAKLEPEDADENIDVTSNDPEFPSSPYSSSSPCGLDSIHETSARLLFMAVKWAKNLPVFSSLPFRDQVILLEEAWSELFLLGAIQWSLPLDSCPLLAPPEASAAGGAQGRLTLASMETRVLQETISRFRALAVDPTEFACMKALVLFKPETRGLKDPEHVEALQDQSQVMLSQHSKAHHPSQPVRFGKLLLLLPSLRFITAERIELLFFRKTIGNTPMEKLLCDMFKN
# cells [11] = format: functional, cell-based
# cells [12] = format: functional, cell-based; remark: listed apart in the source
# [13] = molecular target: T5, Probable nicotinate-nucleotide adenylyltransferase (Staphylococcus aureus (strain N315), UniProt P65502); format: functional, Staphylococcus aureus subsp. aureus N315;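 as to IC50 Mean: confirmatory dose-response retesting of NadD inhibitor hits first found in an ultra-high-throughput screen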
# T5 sequence (P65502 whole entry): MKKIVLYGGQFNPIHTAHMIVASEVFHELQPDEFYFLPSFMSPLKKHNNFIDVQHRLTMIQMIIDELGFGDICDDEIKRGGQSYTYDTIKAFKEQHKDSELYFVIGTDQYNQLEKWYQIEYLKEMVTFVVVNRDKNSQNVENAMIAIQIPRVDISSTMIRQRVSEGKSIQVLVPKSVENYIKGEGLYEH
# [14] = molecular target: T5, Probable nicotinate-nucleotide adenylyltransferase; format: functional, Staphylococcus aureus subsp. aureus N315; settings: read-out: IC50_Mean
# [15] = molecular target: Ras and Rab interactor 1/Tyrosine-protein kinase ABL1 (Homo sapiens, UniProt P00519+Q13671); format: functional;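 also: biochemical TR-FRET dose-response test measuring inhibition of binding between Rin1 and Abl proteins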
# Ras and Rab interactor 1/Tyrosine-protein kinase ABL1, sequence (P00519 whole entry): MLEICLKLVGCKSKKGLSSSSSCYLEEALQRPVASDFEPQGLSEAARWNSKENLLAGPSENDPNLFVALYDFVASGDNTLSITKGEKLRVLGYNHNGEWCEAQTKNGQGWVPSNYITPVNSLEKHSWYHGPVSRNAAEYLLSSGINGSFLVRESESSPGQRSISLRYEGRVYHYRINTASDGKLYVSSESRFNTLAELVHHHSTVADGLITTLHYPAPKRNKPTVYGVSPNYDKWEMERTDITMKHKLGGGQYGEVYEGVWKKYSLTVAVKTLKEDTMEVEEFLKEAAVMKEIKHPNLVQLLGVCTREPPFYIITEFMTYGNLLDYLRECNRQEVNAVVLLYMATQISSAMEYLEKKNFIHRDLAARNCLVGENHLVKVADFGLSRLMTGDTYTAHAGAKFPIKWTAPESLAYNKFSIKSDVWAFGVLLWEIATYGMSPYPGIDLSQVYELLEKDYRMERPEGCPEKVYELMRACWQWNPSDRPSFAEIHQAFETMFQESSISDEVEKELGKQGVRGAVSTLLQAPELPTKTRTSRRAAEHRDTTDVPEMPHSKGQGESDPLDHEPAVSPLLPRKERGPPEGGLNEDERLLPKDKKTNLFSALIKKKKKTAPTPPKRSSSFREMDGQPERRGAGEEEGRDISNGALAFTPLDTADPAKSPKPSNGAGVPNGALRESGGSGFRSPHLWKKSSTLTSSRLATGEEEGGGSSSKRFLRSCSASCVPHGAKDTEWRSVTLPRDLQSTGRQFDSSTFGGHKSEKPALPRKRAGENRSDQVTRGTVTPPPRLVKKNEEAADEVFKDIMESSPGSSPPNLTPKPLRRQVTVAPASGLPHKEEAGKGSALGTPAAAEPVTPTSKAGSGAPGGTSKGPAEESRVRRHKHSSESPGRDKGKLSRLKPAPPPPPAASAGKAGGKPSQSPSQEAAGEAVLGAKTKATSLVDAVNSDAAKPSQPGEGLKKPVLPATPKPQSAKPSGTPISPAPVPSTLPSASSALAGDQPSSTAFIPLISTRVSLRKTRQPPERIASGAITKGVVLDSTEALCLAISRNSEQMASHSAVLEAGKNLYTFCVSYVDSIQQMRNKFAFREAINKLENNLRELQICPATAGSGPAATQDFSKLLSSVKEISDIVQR
# Ras and Rab interactor 1/Tyrosine-protein kinase ABL1, sequence (Q13671 whole entry): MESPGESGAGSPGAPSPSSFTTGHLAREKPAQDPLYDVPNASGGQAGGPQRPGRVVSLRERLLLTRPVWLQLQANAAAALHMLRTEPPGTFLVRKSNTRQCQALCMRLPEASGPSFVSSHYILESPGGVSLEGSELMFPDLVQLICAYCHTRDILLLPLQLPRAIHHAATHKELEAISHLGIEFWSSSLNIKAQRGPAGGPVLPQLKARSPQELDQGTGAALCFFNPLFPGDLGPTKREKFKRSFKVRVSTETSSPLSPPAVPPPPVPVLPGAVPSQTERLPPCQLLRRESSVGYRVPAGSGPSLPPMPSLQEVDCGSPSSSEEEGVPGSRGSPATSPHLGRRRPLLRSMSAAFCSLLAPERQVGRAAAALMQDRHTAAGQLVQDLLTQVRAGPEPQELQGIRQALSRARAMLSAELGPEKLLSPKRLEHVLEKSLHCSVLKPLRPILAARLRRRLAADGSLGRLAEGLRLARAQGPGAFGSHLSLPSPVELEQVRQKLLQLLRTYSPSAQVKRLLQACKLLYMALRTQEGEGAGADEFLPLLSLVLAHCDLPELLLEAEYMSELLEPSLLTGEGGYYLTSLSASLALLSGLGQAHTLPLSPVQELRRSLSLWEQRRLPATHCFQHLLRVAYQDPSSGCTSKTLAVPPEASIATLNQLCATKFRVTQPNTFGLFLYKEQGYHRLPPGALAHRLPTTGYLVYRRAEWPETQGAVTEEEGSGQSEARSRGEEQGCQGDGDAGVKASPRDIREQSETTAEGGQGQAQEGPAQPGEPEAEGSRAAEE
# [16] = NIH-3T3 fibroblast cytotoxicity, dose response, cytotoxicity control, cell-based, fluorescence, Alamar Blue, secondary assay (AID 2327); format: functional;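 also: NIH-3T3 mouse fibroblasts cultured with fluconazole at 8 µg/mL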
# [17] = fluconazole-exposed Candida albicans growth modulators – fluorescence, retest, confirmation (AID 2467); format: functional, cell-based
# [18] = molecular target: T6, Serine/threonine-protein phosphatase (Candida dubliniensis (strain CD36 / CBS 7987 / NCPF 3949 / NRRLY-17841) (Yeast), UniProt B9W6M3); experiment: blockers of CaCl2-induced CDRE-lacZ signaling – S. cerevisiae, luminescence, secondary, dose response (AID 2388); format: functional, cell-based;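 also: yeast reporter cells carrying a calcineurin-responsive lacZ construct stimulated with calcium chloride; luminescent beta-galactosidase reporter signal in whole cells rather than isolated phosphatase activity; potency for inhibition where a drop in reporter signal means calcineurin blockade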
# T6 sequence (B9W6M3 whole entry): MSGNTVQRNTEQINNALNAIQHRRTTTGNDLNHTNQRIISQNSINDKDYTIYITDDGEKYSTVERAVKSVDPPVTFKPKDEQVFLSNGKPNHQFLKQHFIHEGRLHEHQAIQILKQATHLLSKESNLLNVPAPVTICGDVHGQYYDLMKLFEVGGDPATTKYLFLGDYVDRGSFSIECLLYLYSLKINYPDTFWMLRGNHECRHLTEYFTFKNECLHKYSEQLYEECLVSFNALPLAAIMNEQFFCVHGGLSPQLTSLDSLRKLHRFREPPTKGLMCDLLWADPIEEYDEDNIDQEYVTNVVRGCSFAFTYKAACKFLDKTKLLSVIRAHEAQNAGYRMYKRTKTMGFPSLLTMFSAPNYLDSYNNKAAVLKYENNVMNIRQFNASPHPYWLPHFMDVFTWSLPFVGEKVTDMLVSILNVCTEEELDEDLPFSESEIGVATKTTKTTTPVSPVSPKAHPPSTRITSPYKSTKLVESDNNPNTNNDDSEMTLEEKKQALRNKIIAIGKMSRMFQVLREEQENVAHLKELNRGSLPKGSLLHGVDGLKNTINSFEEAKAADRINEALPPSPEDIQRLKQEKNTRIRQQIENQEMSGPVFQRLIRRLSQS
# [19] = molecular target: ATP-dependent molecular chaperone HSP82 (Candida albicans (strain WO-1) (Yeast), UniProt C4YTQ8); experiment: steroid-induced GRE reporter decrease in yeast – S. cerevisiae, luminescence, Hsp90 inhibitor project, dose response (AID 2400); format: functional, cell-based;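 also: beta-galactosidase luminescence from glucocorticoid response element reporter as proxy for Hsp90 function; inhibitor potency where signal loss means Hsp90 inhibition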
# ATP-dependent molecular chaperone HSP82, sequence (C4YTQ8 whole entry): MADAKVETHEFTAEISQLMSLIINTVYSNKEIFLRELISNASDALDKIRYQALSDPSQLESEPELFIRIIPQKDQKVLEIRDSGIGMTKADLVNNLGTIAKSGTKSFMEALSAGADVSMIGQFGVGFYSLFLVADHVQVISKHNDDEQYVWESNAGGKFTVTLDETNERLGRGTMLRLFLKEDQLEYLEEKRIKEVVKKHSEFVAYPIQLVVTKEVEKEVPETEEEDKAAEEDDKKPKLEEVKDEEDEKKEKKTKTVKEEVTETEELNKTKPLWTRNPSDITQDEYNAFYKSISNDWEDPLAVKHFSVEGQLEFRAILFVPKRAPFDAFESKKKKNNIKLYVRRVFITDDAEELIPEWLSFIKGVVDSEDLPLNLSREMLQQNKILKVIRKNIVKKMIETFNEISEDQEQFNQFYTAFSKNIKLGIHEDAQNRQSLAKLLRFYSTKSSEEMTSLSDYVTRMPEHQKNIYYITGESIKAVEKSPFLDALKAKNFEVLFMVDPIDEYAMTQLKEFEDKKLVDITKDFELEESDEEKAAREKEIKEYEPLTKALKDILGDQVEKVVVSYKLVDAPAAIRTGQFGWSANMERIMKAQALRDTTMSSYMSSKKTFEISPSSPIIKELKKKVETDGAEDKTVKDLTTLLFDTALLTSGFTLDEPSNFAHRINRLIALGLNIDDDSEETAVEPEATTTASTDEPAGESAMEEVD
# [20] = luciferase reporter signal suppression in cells – H4 neuroglioma cells, luminescence, dose response (AID 1990); format: functional, cell-based
# [21] = Luminescence Cell-Based Dose Response HTS to Identify Inhibitors of 5'UTR Stem-Loop Driven Prion Protein mRNA Translation in H4 Neuroglioblastoma Cells. [Related pubchem assays: 1827 (Project Summary), 1813 (Primary HTS)]; format: functional
# [22] = alpha-synuclein stem-loop luciferase translation blockers – H4 neuroglioma cells, luminescence, confirmation (AID 1988); format: functional, cell-based
# [23] = Trypanosoma cruzi growth suppression in host cells – NIH3T3 host cells, beta-gal luminescence, confirmation (AID 2044); format: functional, cell-based;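 also: intracellular parasites grown in NIH/3T3 mouse fibroblasts as host cells; luminescent beta-galactosidase reporter signal from transgenic T. cruzi replicating inside host cells; inhibitors lower the luminescence signal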
# [24] = NIH3T3 cell viability loss – ATP luminescence, mouse fibroblasts, counter-screen, dose response (AID 2010); format: functional, cell-based;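 also: cells exposed to compound for about 90 hours before reading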
# INS1 = experiment: INS-1E survival protection against cytokine death – cell-based, luminescence, retest, dose response (AID 449756); format: functional; settings: Rattus norvegicus;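 also: cell death triggered by IL-1 beta plus TNF-alpha plus IFN-gamma mixture; protective hits raise ATP signal compared with cytokine alone wells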
# [25] = Luminescence Cell-Based Dose Retest to Confirm Inhibitors of Cancer Stem Cells. [Related pubchem assays (depositor defined):AID2717, AID2721]; format: functional; settings: Homo sapiens
# Escherichia coli [26] = experiment: microbe, parasite or virus in culture; remark: listed apart in the source
structure (smiles),measurement,setting,value
COC(=O)C(Cc1ccccc1)NCC(=O)Nc1cccc(Cl)c1C (centres undefined),IC50,[1],1.57 µM (active)
O=C(O)COc1ccccc1/C=N/NC(=O)c1cccc(S(=O)(=O)Nc2cccc(Cl)c2)c1,IC50,Leucine aminopeptidase,21.3 µM (active)
same,AC50,[2],73.8 µM (active)
Cc1cc(-c2c(C)[nH]n(-c3ccc(Cl)cc3)c2=O)n(-c2ccc(Cl)cc2)n1,EC50,[3],17.8 µM (active)
same,EC50,Streptokinase A,> 150 µM (not active)
same,EC50,Streptococcus,62.8 µM (active)
same,AC50,Escherichia coli [4],46.2 µM (active)
NS(=O)(=O)c1ccc(CNc2ccc3ccccc3n2)cc1,EC50,[5],> 50 µM (active)
same,IC50,[6],3.76 µM (active)
same,IC50,[7],3.57 µM (active)
O=C(c1ccc(Cl)cc1)N1CCN(c2cc(-c3ccccc3)nc3cc(-c4cccc(Cl)c4)nn23)CC1,EC50,[8],1.99 µM (active)
same,EC50,[9],1.74 µM (active)
COc1ccc(-n2c(C)cc(C(=O)COC(=O)c3ccc(O)cc3O)c2C)cc1,IC50,[10],5.7 µM (active)
Cc1ccc(C(=O)Nc2cccc([N+](=O)[O-])c2)cc1S(=O)(=O)Nc1ccc(NC(=O)c2ccccc2)cc1,EC50,cells [11],> 350 µM (not active)
same,EC50,cells [12],> 350 µM (not active)
same,IC50,[13],25.9 µM (active)
same,IC50,[14],61.1 µM (active)
Cc1ccc(CNC(=O)c2ccccc2NS(=O)(=O)c2ccc(Cl)nc2)cc1,IC50,[6],7.31 µM (active)
same,IC50,[7],4.22 µM (active)
O=C(c1ccccc1F)N1C(=O)c2cccc3cccc1c23,AC50,Escherichia coli [4],38.6 µM (active)
CSc1ccccc1OCc1cc(C(=O)N2CCNC(=O)C2)no1,IC50,[15],6.88 µM (active)
O=C(c1ccco1)N1CCN(c2cc(-c3ccccc3)nc3cc(-c4ccc(Cl)cc4)nn23)CC1,EC50,[8],0.99 µM (active)
same,EC50,[9],2.6 µM (active)
CC(CC(=O)Nc1ncc([N+](=O)[O-])s1)c1ccccc1 (centres undefined),EC50,[16],> 150 µM (inactive)
same,EC50,[17],0.76 µM (active)
same,EC50,[18],> 180 µM (inactive)
same,EC50,[19],> 160 µM (inactive)
Cc1ccc(C(=O)O/N=C/c2c(N3CCOCC3)n(C)c3ccccc23)cc1,EC50,[16],> 160 µM (inconclusive)
same,EC50,[20],> 120 µM (not active)
same,EC50,[21],10.9 µM (active)
same,EC50,[22],> 120 µM (not active)
same,EC50,[17],0.419 µM (active)
same,EC50,[23],0.799 µM (active)
same,EC50,[18],> 180 µM (inactive)
same,EC50,[24],3.44 µM (active)
same,AC50,INS1,0.915 µM (active)
same,EC50,[19],> 160 µM (inactive)
C[C@@H]1CCCCO[C@@H](CN(C)C(=O)Nc2ccc3c(c2)OCO3)[C@@H](C)CN([C@@H](C)CO)C(=O)c2cc(N(C)C)ccc2O1,AC50,[2],114 µM (active)
O=C(NC(=O)N1CCN(c2cccc(Cl)c2)CC1)c1ccc(Cl)cc1,AC50,[25],0.263 µM (active)
same,IC50,[10],3.05 µM (active)
CCc1nnc(NC(=O)CCc2nc(C3=CCN(C)CC3)no2)s1,IC50,[15],3.81 µM (active)
Cc1cccc(OCC(=O)N2CCOCC2)c1,AC50,Escherichia coli [4],37.1 µM (active)
same,AC50,Escherichia coli [26],103 µM (active)
COc1ccc2cc(C(c3nnnn3CCc3ccccc3)N3CCCC(C)C3)c(=O)[nH]c2c1 (centres undefined),IC50,[1],2.7 µM (active)

# Reference: ChEMBL document CHEMBL1201862, “PubChem BioAssay data set” (2004)
